Laboratory results: PMC8079283 (The Journal of Biological Chemistry, 2021)

Biological target: T1, NUDT15 (Homo sapiens, UniProt Q9NV35)
T1 sequence (Q9NV35 1-164): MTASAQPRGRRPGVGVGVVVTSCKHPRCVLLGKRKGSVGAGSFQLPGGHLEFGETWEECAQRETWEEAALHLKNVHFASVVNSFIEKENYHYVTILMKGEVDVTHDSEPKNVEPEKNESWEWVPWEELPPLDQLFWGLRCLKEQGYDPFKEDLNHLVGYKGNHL
Assay: X-ray crystal structure
Assay type: biochemical

- Ki: 10.2 ± 0.9 nM
SMILES: C[C@@H]1CN(C(=O)c2ccc3c(ccn3C)c2)CCN1S(=O)(=O)c1ccc2[nH]c(=O)oc2c1 [compound 6, (R)-6-((2-methyl-4-(1-methyl-1H-indole-5-carbonyl)piperazin-1-yl)sulfonyl)benzo[d]oxazol-2(3H)-one]
